Data as given in patent publication US20160017326A1, “MICRORNAS AS FUNCTIONAL MEDIATORS AND BIOMARKERS OF BONE METASTASIS” (THE TRUSTEES OF PRINCETON UNIVERSITY, priority 2013, published 2016).

What was measured:
[1] = Serum miRNA levels after injection of pre-miRNAs, qRT-PCR; type: in vivo, mice; conditions: qPCR of mouse serum
Method: RNA from cell lines was isolated using a miRVana miRNA isolation kit (AMBION®). Total RNA from mouse bleeds was isolated using Trizol LS (Invitrogen) according to manufacturers instructions. For microarrays, 5 μg total RNA was labeled using the NCode Rapid Labeling System (Invitrogen) and hybridized to custom arrays. The arrays were analyzed using the G2565BA scanner (Agilent Technologies), and median fluorescent intensities were obtained after subtracting background. To identify differential miRNA expression between samples, the median fluorescent intensities were normalized using the median expression values within the array and log 2 values analyzed.
mRNA was analyzed by synthesizing cDNA using the Superscript III First-strand kit (Invitrogen) and qPCR performed using the Power SYBR® green PCR master mix (Applied Biosystems). Mature miRNAs were reverse transcribed using the TaqMan Reverse Transcription Kit (Applied Biosystems) followed by real-time PCR using TaqMan miRNA assays (Applied Biosystems). All analysis was performed using an ABI 7900HT PCR machine according to the manufacturer's instructions. A standard curve was created from serial dilutions from cDNA for each gene of interest. Values were normalized by the expression of GAPDH or RNU6B in each sample.
FIG. 8C illustrates qRT-PCR miRNA expression levels from serum samples of mice taken at indicated times after injection with miRNAs. The results were statistically significant with p<0.01 (**). […] In contrast, miR-141 and miR-219 took substantially longer to clear from the serum, maintaining ˜20% of the normalized expression at 24 hours.

Mmp14 3'UTR = assay: 3'UTR luciferase reporter assay, Mmp14; type: cell-based, mouse; conditions: co-transfection in HeLa
Method: (§1) For NFκB reporter assays the pGL4.32 [luc2P/NF-κB-RE/Hygro] vector (Promega) was co-transfected with a Renilla-luciferase plasmid into cells. After 24 hours, cells were treated with 50 ng/ml RANKL, 50 ng/ml sICAM1, or 10 ng/ml TNFα for analysis at indicated timepoints. Wildtype and mutant 3′UTRs were PCR amplified from mouse genomic DNA. The 3′UTRs were cloned into the pMIR-REPORT vector (AMBION®) downstream of firefly luciferase. Mutations in miRNA target sites were generated using the QuikChange Multi site-directed mutagenesis kit (Stratagene). 5×10^4 HeLa cells were plated in 24-well plates 24 hours prior to transfection. 200 ng of reporter plasmid was co-transfected with the renilla-luciferase control plasmid and 10 pM pre-miRNA precursor or precursor control (AMBION®) using Lipofectamine 2000 (Invitrogen). Cells were lysed 24 hours after transfection and assayed for luciferase activity using the Glomax 96 Luminometer (Promega). Primer sequences for cloning or mutagenesis are listed below:
(§2) Reporter constructs were co-transfected with pre-miRs, as well as a Renilla luciferase plasmid for normalization.

Calcr 3'UTR = assay: 3'UTR luciferase reporter assay, Calcr; type: cell-based, mouse; conditions: co-transfection in HeLa
Method: as §1, §2

Traf6 3'UTR = assay: 3'UTR luciferase reporter assay, Traf6; type: cell-based, mouse; conditions: co-transfection in HeLa
Method: as §1, §2

| Substance | serum miRNA level within 6 hours of injection [1] | clearance from serum within 24 hours [1] | luciferase reporter activity, Mmp14 3'UTR (Mmp14 3'UTR) | normalized serum expression remaining at 24 hours [1] [%] | luciferase reporter activity, Calcr 3'UTR (Calcr 3'UTR) | luciferase reporter activity, Traf6 3'UTR (Traf6 3'UTR) |
| --- | --- | --- | --- | --- | --- | --- |
| miR-133a: miRNA, SEQ ID NO: 61; delivered as pre-miRNA precursor; targets Mitf and Mmp14 (UUUGGUCCCCUUCAACCAGCUA; delivered as pre-miRNA precursor, chemistry not given here; listed as Homo sapiens) | substantial decrease | nearly full clearance | repressed |  |  |  |
| miR-141: miRNA, SEQ ID NO: 69; delivered as pre-miRNA precursor; targets Mitf and Calcr (UAACACUGUCUGGUAACGAUGU; delivered as pre-miRNA precursor, chemistry not given here; listed as Homo sapiens) |  |  |  | ~20 | repressed |  |
| miR-190: miRNA, SEQ ID NO: 64; delivered as pre-miRNA precursor; targets Calcr (UGAUAUGUUUGAUAUAUUAGGU; delivered as pre-miRNA precursor, chemistry not given here; listed as Homo sapiens) | substantial decrease | nearly full clearance |  |  | able to repress |  |
| miR-219: miRNA, SEQ ID NO: 66; delivered as pre-miRNA precursor; targets Mitf and Traf6 (UGAUUGUCCAAACGCAAUUCU; delivered as pre-miRNA precursor, chemistry not given here; listed as Homo sapiens) |  |  |  | ~20 |  | repressed |
